Experimental data published in ChEMBL document CHEMBL1158436, “In vitro inhibition of human erythrocyte glutathione reductase by some new organic nitrates” (Bioorg Med Chem Lett, 2009).

Target: T1, Glutathione reductase, mitochondrial (Homo sapiens, UniProt P00390)
T1 sequence (P00390 whole entry): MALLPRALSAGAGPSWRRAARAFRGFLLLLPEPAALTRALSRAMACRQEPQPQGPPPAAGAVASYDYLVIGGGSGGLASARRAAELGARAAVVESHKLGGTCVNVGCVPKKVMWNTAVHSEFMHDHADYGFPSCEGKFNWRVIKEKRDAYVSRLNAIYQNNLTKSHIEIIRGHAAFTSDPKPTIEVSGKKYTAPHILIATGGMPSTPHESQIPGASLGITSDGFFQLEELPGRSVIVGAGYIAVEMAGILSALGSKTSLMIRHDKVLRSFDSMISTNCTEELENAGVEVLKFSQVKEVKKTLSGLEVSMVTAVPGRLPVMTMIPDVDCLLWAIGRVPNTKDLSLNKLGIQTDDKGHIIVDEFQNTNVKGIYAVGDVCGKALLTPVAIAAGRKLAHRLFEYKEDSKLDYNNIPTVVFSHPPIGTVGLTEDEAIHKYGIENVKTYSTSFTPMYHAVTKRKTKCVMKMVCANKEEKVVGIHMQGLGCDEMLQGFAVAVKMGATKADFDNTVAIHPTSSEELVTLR
Assay: Inhibition of human erythrocyte glutathione reductase

SMILES | IC50 [µM] | Ki [µM]
O=[N+]([O-])O[C@H]1CC2CCC1[C@@H]2O (stereo partly drawn) | 7.13 | 13.1
O=[N+]([O-])O[C@@H]1CC2CCC1[C@@H]2O (stereo partly drawn) | 6.81 | 11.7
O=[N+]([O-])O[C@@H]1CC[C@H](Br)[C@@H]2CC[C@H]1O2 | 11 | 21.5
O=[N+]([O-])O[C@H]1CCCCCC[C@@H]1O | 14.2 | 21.9
O=[N+]([O-])OC1CC2c3ccccc3C1C2O (stereo not drawn) | 10.3 | 18.8
O=[N+]([O-])O[C@H]1CCCC[C@@H]1O | 21 | 43.7
O=[N+]([O-])O[C@H]1CC=CC[C@@H]1O (racemic) | 23 | 35.1
O=[N+]([O-])O[C@H]1CC/C=C\CC[C@@H]1O (racemic) | 29 | 44.3
O=[N+]([O-])O[C@@H](CO)c1ccccc1 (single isomer, unassigned) | 16 | 25.6
